Data from patent publication US8399674B2, “Quinolines” (Hoffman-La Roche Inc., priority 2007, dated 2013).

How the values were obtained:
[1] = target: T1, recombinant human 5-HT5A receptor (Homo sapiens, UniProt P47898); test: [3H]LSD radioligand binding assay, membranes of HEK-EBNA cells transiently expressing the receptor; conditions: [3H]LSD approx. 1 nM, 120 min room temperature, Ki from IC50 by Cheng-Prussoff equation, read-out: Ki (affinity towards the human 5-HT5A receptor)
T1 construct: expressed in transfected cells; host or cells: HEK-EBNA (Human Embryonic Kidney-EBNA) cells, transient transfection; membranes
T1 sequence (P47898 whole entry): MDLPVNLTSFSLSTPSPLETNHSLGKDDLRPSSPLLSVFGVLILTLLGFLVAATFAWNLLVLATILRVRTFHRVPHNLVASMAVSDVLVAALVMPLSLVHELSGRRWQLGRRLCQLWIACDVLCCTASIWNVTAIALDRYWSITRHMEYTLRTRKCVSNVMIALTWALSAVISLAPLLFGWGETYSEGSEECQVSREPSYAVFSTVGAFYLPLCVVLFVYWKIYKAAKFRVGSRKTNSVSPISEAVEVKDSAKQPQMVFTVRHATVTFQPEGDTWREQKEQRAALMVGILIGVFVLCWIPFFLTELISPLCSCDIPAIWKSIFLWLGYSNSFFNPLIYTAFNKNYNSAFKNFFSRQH
Protocol: A [^3H] LSD radioligand binding assay was used to determine the affinity of the compounds for the recombinant human 5-HT5A receptor, in membranes from transiently (cDNA) expressed 5-HT5A receptors in Human Embryonic Kidney-EBNA (HEK-EBNA) cells.
Assay buffer consisted of Tris (50 mM) buffer containing 1 mM EGTA, 10 mM MgCl2 (pH 7.4) and 10 μM pargyline. The binding assay was carried out in 96-well-plates in the presence of [^3H]LSD (approximately 1 nM), approximately 2 μg/well of membrane protein, and 0.5 mg of Ysi-poly-1-lysine SPA beads in a final volume of 200 μl of buffer. Non-specific binding was defined using methiothepin 2 μM. Compounds were tested at 10 concentrations. All assays were conducted in duplicate and repeated at least two times. Assay plates were incubated for 120 min at room temperature before centrifugation. Bound ligand was determined using a Packard Topcount scintillation counter. IC50 values were calculated using a non-linear curve fitting program and Ki values calculated using the Cheng-Prussoff equation.

| SMILES | melting point | Ki [1] |
| --- | --- | --- |
| CCn1nnc(Nc2ccc3nc(NCc4ccccc4OC)ccc3c2)n1 [Example 87, N6-(2-Ethyl-2H-tetrazol-5-yl)-N2-(2-methoxy-benzyl)-quinoline-2,6-diamine] | 190 °C | 44 nM |
| COc1ccccc1CNc1ccc2cc(Nc3nnc(C4CC4)o3)ccc2n1 [Example 96, N6-(5-Cyclopropyl-[1,3,4]oxadiazol-2-yl)-N2-(2-methoxy-benzyl)-quinoline-2,6-diamine] | 199 °C | 47 nM |
| COc1ccccc1CNc1ccc2cc(Nc3nccc(C)n3)ccc2n1 [Example 90, N2-(2-Methoxy-benzyl)-N6-(4-methyl-pyrimidin-2-yl)-quinoline-2,6-diamine] | 125 °C | 33 nM |
| COc1ccccc1CNc1ccc2cc(Nc3nccc(C(F)(F)F)n3)ccc2n1 [Example 94, N2-(2-Methoxy-benzyl)-N6-(4-trifluoromethyl-pyrimidin-2-yl)-quinoline-2,6-diamine] | 114 °C | 30 nM |
| COc1ccccc1CNc1ccc2cc(Nc3ccccn3)ccc2n1 [Example 92, N2-(2-Methoxy-benzyl)-N6-pyridin-2-yl-quinoline-2,6-diamine] | 134 °C | 34 nM |
| COc1ccccc1CNc1ccc2cc(Nc3cc(C)on3)ccc2n1 [Example 88, N2-(2-Methoxy-benzyl)-N6-(5-methyl-isoxazol-3-yl)-quinoline-2,6-diamine] | 132 °C | 26 nM |
| COc1ccccc1CNc1ccc2cc(Nc3ncco3)ccc2n1 [Example 100, N2-(2-Methoxy-benzyl)-N6-oxazol-2-yl-quinoline-2,6-diamine] | 205 °C |  |
| COc1ccccc1CNc1ccc2cc(Nc3nc(C(F)(F)F)co3)ccc2n1 [Example 98, N2-(2-Methoxy-benzyl)-N6-(4-trifluoromethyl-oxazol-2-yl)-quinoline-2,6-diamine] | 144 °C |  |
| COc1ccccc1CNc1ccc2cc(Nc3nnc(C(F)(F)F)o3)ccc2n1 [Example 97, N2-(2-Methoxy-benzyl)-N6-(5-trifluoromethyl-[1,3,4]oxadiazol-2-yl)-quinoline-2,6-diamine] | 198 °C |  |
| COc1ccccc1CNc1ccc2cc(Nc3cccc(C)n3)ccc2n1 [Example 93, N2-(2-Methoxy-benzyl)-N6-(6-methyl-pyridin-2-yl)-quinoline-2,6-diamine] | 134 °C |  |
